{"source": "patent US9149445B2", "about": "“Inhibition of glycerol-3-phosphate acyltransferase (GPAT) and associated enzymes for treatment of viral infections” (THE TRUSTEES OF PRINCETON UNIVERSITY, priority 2009, dated 2015)", "key": {"GPAT": {"tested_on": "GPAT", "settings": "cited from earlier work"}, "human cytomegalovirus": {"tested_on": "human cytomegalovirus", "experiment": "HCMV late protein expression by Western blot in infected fibroblasts", "type": "cell-based", "settings": "intermediate and high concentrations (5μ/ml and 10μ/ml); 96 hours after infection; multiplicity 3.0 TCID50 units/cell; compared to tubulin and IE-1", "experimental": "FIG. 3. Dose-dependent Inhibition of Human Cytomegalovirus Late Protein Expression by Inhibition of GPAT. Serum-starved fibroblasts were infected with human cytomegalovirus at a multiplicity of 3.0 TCID50 units/cell. After adsorption for 1 h, cultures were re-fed with serum-free medium containing the indicated concentrations of FAS 115 or with DMSO, the solvent used to dissolve FAS 115. Cells were harvested at 96 hours after infection and viral protein expression was assessed by Western blot. IE-1 is a viral protein expressed immediately early during infection. pp65 and pp28 are viral proteins expressed late during HCMV infection. Tubulin is a loading control.\nSerum-starved fibroblasts were infected with human cytomegalovirus at a multiplicity of 3.0 TCID50 units/cell. After adsorption for 1 h, cultures were re-fed with serum-free medium containing 2.5μ/ml, 5μ/ml and 10μ/ml of FAS 115 or with DMSO, the solvent used to dissolve FAS 115. Cells were harvested at 96 hours after infection and viral protein expression was assessed by Western blot. IE-1 is a viral protein expressed during the immediate-early phase of infection. pp65 and pp28 are viral proteins expressed late during HCMV infection. Tubulin is a loading control. […] (FIG. 3)."}, "HCMV": {"tested_on": "HCMV", "experiment": "HCMV replication in serum-starved fibroblasts, infectious progeny by TCID50 assay", "type": "cell-based, human cytomegalovirus", "settings": "multiplicity 0.1 TCID50 units per cell", "experimental": "FIG. 2. Inhibition of HCMV Replication by Inhibition of GPAT. Serum-starved fibroblasts were infected with HCMV at a multiplicity of 0.1 TCID50 units per cell. After adsorption for 1 h, cultures were re-fed with serum-free medium containing concentrations of 2.5 μg/ml, 5 μg/ml and 10 μg/ml of FAS 115 or with DMSO, the solvent used to dissolve FAS 115. Medium was assayed at 0, 2, 4, 6, 8, 10 and 12 days after infection and the production of infectious progeny was determined by TCID50 assay on fibroblasts.\nSerum-starved fibroblasts were infected with HCMV at a multiplicity of 0.1 TCID50 units per cell. After adsorption for 1 h, cultures were re-fed with serum-free medium containing concentrations of 2.5μ/ml, 5μ/ml and 10μ/ml of FAS 115 or with DMSO, the solvent used to dissolve FAS 115. The medium was assayed at 0, 2, 4, 6, 8, 10 and 12 days after infection and the production of infectious progeny was determined by TCID50 assay on fibroblasts. […] At the highest concentration, production of virus was not observed on day 12 after infection. (FIG. 2).\nCell Lines, Viral Stock. Low passage fibroblasts (passage 6-8) were cultured in a medium containing 10% fetal bovine serum. Bacterial artificial chromosome-derived HCMV AD 169 strain (BADWT) was propagated in human foreskin fibroblasts (HFFs), concentrated via a 20% sorbitol cushion, and resuspended as a stock in serum-free media."}, "herpes simplex virus-1": {"tested_on": "herpes simplex virus-1", "experiment": "HSV-1 replication in serum-starved fibroblasts, infectious progeny by TCID50 assay", "type": "cell-based", "settings": "multiplicity 0.01 TCID50 units/cell", "experimental": "FIG. 4. Dose-dependent Inhibition of Herpes Simplex Virus-1 Replication by Inhibition of GPAT. Serum-starved fibroblasts were infected with herpes simplex virus-1 at a multiplicity of 0.01 TCID50 units/cell. After adsorption for 1 h, cultures were re-fed with serum-free medium containing the indicated concentrations of FAS 115 or with DMSO, the solvent used to dissolve FAS 115. Medium was harvested at the indicated times after infection and the production of infectious progeny was determined by TCID50 assay on fibroblasts.\nSerum-starved fibroblasts were infected with herpes simplex virus-1 at a multiplicity of 0.01 TCID50 units/cell. After adsorption for 1 h, cultures were re-fed with serum-free medium containing concentrations of 2.5μ/ml, 5μ/ml and 10μ/ml of FAS 115 of FAS 115 or with DMSO, the solvent used to dissolve FAS 115. The medium was assayed daily for five days and the production of infectious progeny was determined by TCID50 assay on fibroblasts. […] At higher concentrations, the concentration of infections virus was reduced to 1 TCID50 unit/ml or less after 5 days. (FIG. 4)."}, "mTOR": {"biological_target": "mTOR (Homo sapiens, UniProt P42345)", "settings": "selective mTOR inhibitors; cited from earlier work"}, "[1]": {"tested_on": "panel of 140 protein kinases", "settings": "cited from earlier work"}}, "data": [{"smiles": "CCCCCCCC[C@@]1(C)SC(=O)C=C1OC(=O)OCC", "note": "[FAS 115]", "values": [{"measurement": "inhibition of GPAT", "setting": "GPAT", "value": "inhibits GPAT"}, {"measurement": "expression of pp28", "setting": "human cytomegalovirus", "value": "noticeably reduced"}, {"measurement": "expression of pp65", "setting": "human cytomegalovirus", "value": "noticeably reduced"}, {"measurement": "production of virus", "setting": "HCMV; highest concentration (10μ/ml), day 12 after infection", "value": "not observed"}, {"measurement": "viral titers reduced", "setting": "HCMV; lowest FAS 115 concentration (2.5μ/ml), versus DMSO", "value": "about an order of magnitude"}, {"measurement": "concentration of infections virus", "setting": "herpes simplex virus-1; higher concentrations (5μ/ml, 10μ/ml), after 5 days", "value": "≤ 1", "unit": "TCID50 unit/ml"}, {"measurement": "viral titers lower than in untreated cells", "setting": "herpes simplex virus-1; lowest FAS 115 concentration (2.5μ/ml)", "value": "about an order of magnitude"}]}, {"smiles": "c1cncc(CN2CCC(n3ncc4c(N5CCOCC5)nc(-c5ccc6[nH]ccc6c5)nc43)CC2)c1", "note": "[WAY-600]", "values": [{"measurement": "IC50", "setting": "mTOR", "value": 9, "unit": "nM"}]}, {"smiles": "COC(=O)Nc1ccc(-c2nc(N3CCOCC3)c3cnn(C4CCN(C(=O)OC)CC4)c3n2)cc1", "note": "[WYE354]", "values": [{"measurement": "IC50", "setting": "mTOR", "value": 5, "unit": "nM"}]}, {"smiles": "CNC(=O)Nc1ccc(-c2nc(N3CC4CCC(C3)O4)c3cnn(C4CCC5(CC4)OCCO5)c3n2)cc1", "note": "[WYE-125132]", "values": [{"measurement": "IC50", "setting": "mTOR", "value": 0.19, "unit": "nM"}]}, {"smiles": "Cc1c(C(=O)N2CCOc3ccc(-c4ccc(N)nc4)cc3C2)ccc(S(C)(=O)=O)c1F", "note": "[XL388]", "values": [{"measurement": "IC50", "setting": "[1]", "value": "> 3000", "unit": "nM"}]}]}
